Experimental data from PMC4138103 (PLoS ONE, 2014).
Read-outs that look alike come from different tables or passages of the source.

System: Sprague-Dawley rats
Assay: Bone geometry and densitometry (pQCT of tibia)
Type: in vivo, Rattus norvegicus
Set-up: key to Dose response: Densitometry, diaphysis, Cortical area / Dose response: Densitometry, metaphysis, Trabecular area: D: significant dose response (for results, see Table 2); T: significant trend
Conditions: for CED, Cortical area of diaphysis / CED-L, Cortical area of diaphysis: M; for Emax: Rattus norvegicus
Method: Hind limbs were collected and frozen at −20°C. Dissected right tibias were cleaned from soft tissue and stored in Ringer solution at −20°C until analysis. The length of each bone was measured using an electronic sliding caliper to the nearest 0.01 mm (IP65, Sylvac SA, Crissier, Switzerland). […] The thresholds for defining trabecular bone were 280 and 400 mg/cm^3, while cortical bone was defined above a threshold of 710 mg/cm^3. The voxel size was 0.07 mm.
Data were also analyzed using the BMD method, which is based on dose-response modeling of the full data set using a nested family of exponential and Hill models. The analyses were done on data of males and females combined, using sex as a covariate. […] In that case, different Critical Effect Doses (CEDs) and CEDs at the lowest bound of the confidence interval (CED-L) were generated for each sex. If no difference between sexes is detected, a CED and CED-Ls for the combined data is generated. However, this was also done if the curve fits are close, and separate analyses for males and females were then performed manually. CEDs and CED-Ls were calculated at the predefined Critical Effect Size (CES) of 5% (EFSA standard) or 10%.

[1] = F, CES 5%, model E2, adipose tissue concentration based
[2] = F, CES 10%, model E2, adipose tissue concentration based
[3] = CES 5%, model E2, adipose tissue concentration based
[4] = CES 10%, model E2, adipose tissue concentration based
[5] = females, CES 5%, total dose based
[6] = males, CES 5%, total dose based
[7] = tibia, females, total dose 3 mg/kg bw
[8] = tibia, females, total dose 10 mg/kg bw
[9] = tibia, females, total dose 30 mg/kg bw
[10] = tibia, females, total dose 100 mg/kg bw
[11] = tibia, females, total dose 300 mg/kg bw
[12] = tibia, females, total dose 1000 mg/kg bw
[13] = tibia, females, total dose 1700 mg/kg bw
[14] = tibia, males, total dose 3 mg/kg bw
[15] = tibia, males, total dose 10 mg/kg bw
[16] = tibia, males, total dose 30 mg/kg bw
[17] = tibia, males, total dose 100 mg/kg bw
[18] = tibia, males, total dose 300 mg/kg bw
[19] = tibia, males, total dose 1000 mg/kg bw
[20] = tibia, males, total dose 1700 mg/kg bw

`Clc1cc(Cl)c(-c2cc(Cl)c(Cl)c(Cl)c2Cl)cc1Cl` [PCB 180, 2,2′,3′,4,4′,5,5′-heptachlorobiphenyl] was tested, and the “CED, Trabecular area of metaphysis” value [1] was 6230 µg/g lipid, the “CED-L, Trabecular area of metaphysis” value [1] was 3714 µg/g lipid and the “CED, Trabecular area of metaphysis” value [2] was 12200 µg/g lipid. The “CED-L, Trabecular area of metaphysis” value [2] was 7255 µg/g lipid, the “CED, Cortical area of diaphysis” value [3] was 5930 µg/g lipid and the “CED-L, Cortical area of diaphysis” value [3] was 3506 µg/g lipid. For the same compound, the “CED, Cortical area of diaphysis” value [4] was 12200 µg/g lipid, the “CED-L, Cortical area of diaphysis” value [4] was 7202 µg/g lipid and the Emax (F, model E2, controls vs high dose according to the fitted model, read-out: Maximum response, Trabecular area of metaphysis) was 9.25%. For the same compound, the Emax (females, controls vs high dose, fitted model, read-out: Trabecular area of metaphysis, Maximum response) was 8.2%, the Emax (males, controls vs high dose, fitted model, read-out: Cortical area of diaphysis, Maximum response) was -6.1% and the Emax (model E2, controls vs high dose according to the fitted model, read-out: Maximum response, Cortical area of diaphysis) was -6.19%. The “Trabecular area of metaphysis, CED” value [5] was 1040 mg/kg bw, the “Trabecular area of metaphysis, CED-L” value [5] was 602 mg/kg bw and the “Trabecular area of metaphysis, CED” value (females, adipose tissue concentration based) was 6230 µg/g lipid. For the same compound, the “Trabecular area of metaphysis, Maximum response” value (females, controls vs high dose, fitted model) was 8.30%, the “Cortical area of diaphysis, CED” value [6] was 1380 mg/kg bw and the “Cortical area of diaphysis, CED-L” value [6] was 820 mg/kg bw. For the same compound, the “Cortical area of tibial diaphysis, CED” value (males, adipose tissue concentration based) was 5930 µg/g lipid, the “Densitometry, diaphysis: Cortical area” value [7] was 3.25 mm2 and the “Densitometry, diaphysis: Cortical density” value [7] was 1315 mg/cm3. The “Densitometry, diaphysis: Cortical thickness” value [7] was 0.49 mm, the “Densitometry, diaphysis: Endosteal circumference” value [7] was 5.06 mm and the “Densitometry, diaphysis: Periosteal circumference” value [7] was 8.15 mm. For the same compound, the “Densitometry, metaphysis: Total density” value [7] was 570 mg/cm3, the “Densitometry, metaphysis: Trabecular area” value [7] was 5.33 mm2 and the “Densitometry, metaphysis: Trabecular density” value [7] was 195 mg/cm3. The “Densitometry, diaphysis: Cortical area” value [8] was 3.22 mm2, the “Densitometry, diaphysis: Cortical density” value [8] was 1312 mg/cm3 and the “Densitometry, diaphysis: Cortical thickness” value [8] was 0.49 mm. For the same compound, the “Densitometry, diaphysis: Endosteal circumference” value [8] was 5.06 mm, the “Densitometry, diaphysis: Periosteal circumference” value [8] was 8.12 mm and the “Densitometry, metaphysis: Total density” value [8] was 571 mg/cm3. For the same compound, the “Densitometry, metaphysis: Trabecular area” value [8] was 5.37 mm2, the “Densitometry, metaphysis: Trabecular density” value [8] was 199 mg/cm3 and the “Densitometry, diaphysis: Cortical area” value [9] was 3.23 mm2. For the same compound, the “Densitometry, diaphysis: Cortical density” value [9] was 1311 mg/cm3, the “Densitometry, diaphysis: Cortical thickness” value [9] was 0.49 mm and the “Densitometry, diaphysis: Endosteal circumference” value [9] was 5.08 mm. For the same compound, the “Densitometry, diaphysis: Periosteal circumference” value [9] was 8.14 mm, the “Densitometry, metaphysis: Total density” value [9] was 569 mg/cm3 and the “Densitometry, metaphysis: Trabecular area” value [9] was 5.52 mm2. For the same compound, the “Densitometry, metaphysis: Trabecular density” value [9] was 211 mg/cm3, the “Densitometry, diaphysis: Cortical area” value [10] was 3.21 mm2 and the “Densitometry, diaphysis: Cortical density” value [10] was 1307 mg/cm3. The “Densitometry, diaphysis: Cortical thickness” value [10] was 0.49 mm, the “Densitometry, diaphysis: Endosteal circumference” value [10] was 4.95 mm and the “Densitometry, diaphysis: Periosteal circumference” value [10] was 8.06 mm. For the same compound, the “Densitometry, metaphysis: Total density” value [10] was 586 mg/cm3, the “Densitometry, metaphysis: Trabecular area” value [10] was 4.99 mm2 and the “Densitometry, metaphysis: Trabecular density” value [10] was 209 mg/cm3. For the same compound, the “Densitometry, diaphysis: Cortical area” value [11] was 3.26 mm2, the “Densitometry, diaphysis: Cortical density” value [11] was 1310 mg/cm3 and the “Densitometry, diaphysis: Cortical thickness” value [11] was 0.50 mm. The “Densitometry, diaphysis: Endosteal circumference” value [11] was 5.01 mm, the “Densitometry, diaphysis: Periosteal circumference” value [11] was 8.13 mm and the “Densitometry, metaphysis: Total density” value [11] was 581 mg/cm3. The “Densitometry, metaphysis: Trabecular area” value [11] was 5.25 mm2, the “Densitometry, metaphysis: Trabecular density” value [11] was 214 mg/cm3 and the “Densitometry, diaphysis: Cortical area” value [12] was 3.23 mm2. The “Densitometry, diaphysis: Cortical density” value [12] was 1309 mg/cm3, the “Densitometry, diaphysis: Cortical thickness” value [12] was 0.49 mm and the “Densitometry, diaphysis: Endosteal circumference” value [12] was 4.97 mm. For the same compound, the “Densitometry, diaphysis: Periosteal circumference” value [12] was 8.08 mm, the “Densitometry, metaphysis: Total density” value [12] was 574 mg/cm3 and the “Densitometry, metaphysis: Trabecular area” value [12] was 5.41 mm2. For the same compound, the “Densitometry, metaphysis: Trabecular density” value [12] was 209 mg/cm3, the “Densitometry, diaphysis: Cortical area” value [13] was 3.10 mm2 and the “Densitometry, diaphysis: Cortical density” value [13] was 1307 mg/cm3. For the same compound, the “Densitometry, diaphysis: Cortical thickness” value [13] was 0.48 mm, the “Densitometry, diaphysis: Endosteal circumference” value [13] was 5.01 mm and the “Densitometry, diaphysis: Periosteal circumference” value [13] was 8.00 mm. The “Densitometry, metaphysis: Total density” value [13] was 562 mg/cm3, the “Densitometry, metaphysis: Trabecular area” value [13] was 5.84 mm2 and the “Densitometry, metaphysis: Trabecular density” value [13] was 221 mg/cm3. For the same compound, the “Dose response: Densitometry, metaphysis, Trabecular area” value (tibia, females, total doses 0-1700 mg/kg bw) was “D”, the “Densitometry, diaphysis: Cortical area” value [14] was 4.04 mm2 and the “Densitometry, diaphysis: Cortical density” value [14] was 1321 mg/cm3. For the same compound, the “Densitometry, diaphysis: Cortical thickness” value [14] was 0.56 mm, the “Densitometry, diaphysis: Endosteal circumference” value [14] was 5.47 mm and the “Densitometry, diaphysis: Periosteal circumference” value [14] was 8.98 mm. For the same compound, the “Densitometry, metaphysis: Total density” value [14] was 493 mg/cm3, the “Densitometry, metaphysis: Trabecular area” value [14] was 8.42 mm2 and the “Densitometry, metaphysis: Trabecular density” value [14] was 174 mg/cm3. For the same compound, the “Densitometry, diaphysis: Cortical area” value [15] was 3.95 mm2, the “Densitometry, diaphysis: Cortical density” value [15] was 1314 mg/cm3 and the “Densitometry, diaphysis: Cortical thickness” value [15] was 0.54 mm. The “Densitometry, diaphysis: Endosteal circumference” value [15] was 5.55 mm, the “Densitometry, diaphysis: Periosteal circumference” value [15] was 8.97 mm and the “Densitometry, metaphysis: Total density” value [15] was 465 mg/cm3. For the same compound, the “Densitometry, metaphysis: Trabecular area” value [15] was 8.96 mm2, the “Densitometry, metaphysis: Trabecular density” value [15] was 139 mg/cm3 and the “Densitometry, diaphysis: Cortical area” value [16] was 4.08 mm2. For the same compound, the “Densitometry, diaphysis: Cortical density” value [16] was 1316 mg/cm3, the “Densitometry, diaphysis: Cortical thickness” value [16] was 0.56 mm and the “Densitometry, diaphysis: Endosteal circumference” value [16] was 5.58 mm. For the same compound, the “Densitometry, diaphysis: Periosteal circumference” value [16] was 9.08 mm, the “Densitometry, metaphysis: Total density” value [16] was 485 mg/cm3 and the “Densitometry, metaphysis: Trabecular area” value [16] was 8.63 mm2. The “Densitometry, metaphysis: Trabecular density” value [16] was 165 mg/cm3, the “Densitometry, diaphysis: Cortical area” value [17] was 4.06 mm2 and the “Densitometry, diaphysis: Cortical density” value [17] was 1300 mg/cm3. The “Densitometry, diaphysis: Cortical thickness” value [17] was 0.55 mm, the “Densitometry, diaphysis: Endosteal circumference” value [17] was 5.70 mm and the “Densitometry, diaphysis: Periosteal circumference” value [17] was 9.14 mm. For the same compound, the “Densitometry, metaphysis: Total density” value [17] was 458 mg/cm3, the “Densitometry, metaphysis: Trabecular area” value [17] was 9.57 mm2 and the “Densitometry, metaphysis: Trabecular density” value [17] was 159 mg/cm3. For the same compound, the “Densitometry, diaphysis: Cortical area” value [18] was 4.06 mm2, the “Densitometry, diaphysis: Cortical density” value [18] was 1313 mg/cm3 and the “Densitometry, diaphysis: Cortical thickness” value [18] was 0.56 mm. For the same compound, the “Densitometry, diaphysis: Endosteal circumference” value [18] was 5.53 mm, the “Densitometry, diaphysis: Periosteal circumference” value [18] was 9.03 mm and the “Densitometry, metaphysis: Total density” value [18] was 474 mg/cm3. The “Densitometry, metaphysis: Trabecular area” value [18] was 8.85 mm2, the “Densitometry, metaphysis: Trabecular density” value [18] was 150 mg/cm3 and the “Densitometry, diaphysis: Cortical area” value [19] was 3.88 mm2. For the same compound, the “Densitometry, diaphysis: Cortical density” value [19] was 1306 mg/cm3, the “Densitometry, diaphysis: Cortical thickness” value [19] was 0.54 mm and the “Densitometry, diaphysis: Endosteal circumference” value [19] was 5.51 mm. For the same compound, the “Densitometry, diaphysis: Periosteal circumference” value [19] was 8.90 mm, the “Densitometry, metaphysis: Total density” value [19] was 468 mg/cm3 and the “Densitometry, metaphysis: Trabecular area” value [19] was 8.69 mm2. The “Densitometry, metaphysis: Trabecular density” value [19] was 154 mg/cm3, the “Densitometry, diaphysis: Cortical area” value [20] was 3.80 mm2 and the “Densitometry, diaphysis: Cortical density” value [20] was 1315 mg/cm3. The “Densitometry, diaphysis: Cortical thickness” value [20] was 0.53 mm, the “Densitometry, diaphysis: Endosteal circumference” value [20] was 5.54 mm and the “Densitometry, diaphysis: Periosteal circumference” value [20] was 8.86 mm. For the same compound, the “Densitometry, metaphysis: Total density” value [20] was 483 mg/cm3, the “Densitometry, metaphysis: Trabecular area” value [20] was 8.64 mm2 and the “Densitometry, metaphysis: Trabecular density” value [20] was 164 mg/cm3. The “Dose response: Densitometry, diaphysis, Cortical area” value (tibia, males, total doses 0-1700 mg/kg bw) was “D”.
